This passage reports Ki results from publication PMC6380167, “Phosphoglycolate has profound metabolic effects but most likely no role in a metabolic DNA response in cancer cell lines” (Biochemical Journal, 2019).

For the assay, the target named is T1, enolase (Oryctolagus cuniculus, UniProt P25704).
T1 construct: gene ENO3; purified rabbit muscle enolase (Sigma)
Description: coupled pyruvate kinase/lactate dehydrogenase enzyme assay, NADH absorption at […] nm. Format: biochemical.

T1 sequence (P25704 2-434): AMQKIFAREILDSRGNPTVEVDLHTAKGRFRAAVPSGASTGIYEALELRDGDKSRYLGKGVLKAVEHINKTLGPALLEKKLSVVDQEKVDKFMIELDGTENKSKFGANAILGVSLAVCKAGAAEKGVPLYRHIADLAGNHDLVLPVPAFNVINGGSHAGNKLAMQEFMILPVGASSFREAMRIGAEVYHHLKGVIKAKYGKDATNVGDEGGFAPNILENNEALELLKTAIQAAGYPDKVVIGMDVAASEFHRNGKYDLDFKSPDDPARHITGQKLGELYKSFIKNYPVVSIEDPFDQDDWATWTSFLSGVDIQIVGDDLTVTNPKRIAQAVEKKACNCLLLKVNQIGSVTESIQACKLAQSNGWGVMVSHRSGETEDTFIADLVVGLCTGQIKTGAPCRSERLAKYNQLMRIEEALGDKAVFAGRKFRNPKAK

For the molecule `O=C(O)COP(=O)(O)O` [phosphoglycolate], the Ki is approximately 160 µM.
